The supplement of paper PMC10883282
± gives the standard deviation of the averaged measurements.

Assays:
Assay in all cases: relative viability vs DMSO control (72 h) (fraction); higher = more viable cells
A204 = tested on: A204
How it was run: (§1)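 Sarcoma cell lines were seeded in 384-well plates at densities set to reach 80–90% confluence. After 24 h, 2.5 µl of serially diluted compound was added (source plates 10 mM to 0.0002 mM), and plates were held 72 h at 37 °C, 5% CO2, with 0.1% DMSO vehicle and a 5 µM positive control. Relative viability came from ATPLite readings as percent growth, averaged over up to triplicate wells. Data were rescaled so full viability equals 1 and none equals 0.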

G401 = tested on: G401
How it was run: as §1

HS729 = tested on: HS729
How it was run: as §1

KHOS-240S = tested on: KHOS-240S
How it was run: as §1

MES-SA = tested on: MES-SA
How it was run: as §1

SK-ES-1 = tested on: SK-ES-1
How it was run: as §1

CNC(=O)c1c(C)oc2cc(Oc3ncnc4cc(OC)c(OC)cc34)ccc12 [Fruquintinib]
relative viability
Conditions | A204 | G401 | HS729 | KHOS-240S | MES-SA | SK-ES-1
0.00017 µM | 1.06 ± 0.031 | 0.988 ± 0.017 | 1.09 ± 0.055 | 1.06 ± 0.031 | 0.96 ± 0.019 | 1.01 ± 0.03
0.00051 µM | 1.09 ± 0.021 | 1.02 ± 0.065 | 1 ± 0.042 | 1.07 ± 0.034 | 0.975 ± 0.029 | 1.07 ± 0.017
0.00152 µM | 1.05 ± 0.034 | 1.02 ± 0.064 | 0.959 ± 0.079 | 1.08 ± 0.035 | 0.943 ± 0.04 | 1.04 ± 0.059
0.00457 µM | 1.05 ± 0.022 | 0.986 ± 0.029 | 0.961 ± 0.082 | 1.07 ± 0.018 | 0.935 ± 0.037 | 1.07 ± 0.091
0.01372 µM | 1.06 ± 0.029 | 1.03 ± 0.051 | 0.908 ± 0.054 | 1.07 ± 0.043 | 0.947 ± 0.02 | 1.06 ± 0.05
0.04115 µM | 0.999 ± 0.061 | 1.01 ± 0.019 | 0.927 ± 0.025 | 1.08 ± 0.022 | 0.9442 ± 0.0073 | 1.1 ± 0.08
0.1235 µM | 0.967 ± 0.032 | 0.965 ± 0.025 | 0.896 ± 0.053 | 1.03 ± 0.019 | 0.922 ± 0.034 | 1.05 ± 0.038
0.3704 µM | 0.73 ± 0.019 | 0.953 ± 0.035 | 0.852 ± 0.035 | 0.987 ± 0.028 | 0.929 ± 0.03 | 1 ± 0.045
1.111 µM | 0.409 ± 0.024 | 0.9 ± 0.058 | 0.794 ± 0.067 | 0.9394 ± 0.0081 | 0.9218 ± 0.0043 | 0.971 ± 0.07
3.333 µM | 0.32 ± 0.021 | 0.698 ± 0.0094 | 0.717 ± 0.019 | 0.8 ± 0.035 | 0.855 ± 0.022 | 0.951 ± 0.038
10 µM | 0.258 ± 0.031 | 0.57 ± 0.029 | 0.657 ± 0.045 | 0.755 ± 0.051 | 0.806 ± 0.036 | 0.926 ± 0.025
